These results are taken from PMC11225352, “A multicenter, randomized, double-blind, placebo-controlled ascending dose study to evaluate the safety, tolerability, pharmacokinetics (PK) and pharmacodynamic (PD) effects of Posiphen in subjects with early Alzheimer’s Disease” (Alzheimer's Research & Therapy, 2024).

The nature of data set [1]: Plasma pharmacokinetics of Posiphen and its N1 and N8 metabolites (LC-MS, non-compartmental). It is filed as in vivo, human. The settings on record: for AUC0 − 24 in plasma, dose proportionality: between once daily and twice daily dosing; for mean levels averaged over 24 h of CSF sampling / AUC0 − 24 / Cmax / Tmax: plasma; for mean levels averaged over 24 h of CSF sampling: after 21–23 days, early AD. From the text: (§1) For the confinement visit, subjects arrived in the early morning after an overnight fast. Physical and neurological examination, vital signs, and assessment of compliance were completed and blood was drawn for safety laboratory tests. An intravenous line and a second line for repeated blood draw were placed. To sample CSF, the intrathecal space was accessed using a Perifix 18G Touhy Epidural Needle (90 mm), and a Polyamide Epidural Catheter (20G Closed Tip) was inserted and fixed in place by an Anesthesiologist. Participants received the last day’s dosing of study drug or placebo. Initial blood and CSF samples were drawn, intravenous infusion of ^13C6-leucine was started and continued for 9 h, during which time subjects received a low leucine diet. Blood and CSF were sampled every 2 h for 36 h. After 36 h, intravenous lines and the CSF catheter were removed, vital signs were measured, physical exam performed, and blood and CSF were sent for routine laboratory studies. […] If postural headache was present, a blood patch was performed. Once stable, participants underwent a brief exam and vital sign check and were discharged. They received a phone call 24 h after discharge to check on their wellbeing.
(§2) For biochemical analysis to derive data for SILK, ^13C6-leucine was analyzed in plasma and CSF by mass spectrometry, and Aβ peptides in CSF were analyzed by immunoprecipitation-mass spectrometry (IP-MS) as previously described, by C2N Diagnostics (St Louis, MO). CSF levels of sAPPα, sAPPβ, Aβ38, 40 and 42 were analyzed by the ADCS Biomarker Core using Mesoscale Discovery (MSD) electrochemiluminescent assays (Mesoscale Discovery, Rockville, MD). Levels of Posiphen and its N1 and N8 metabolites in plasma and CSF were measured by Charles River Laboratories (Montreal, CA) by high-performance liquid chromatographic mass spectrometry, with use of deuterated Posiphen (procured by Charles River Laboratories) as an internal standard.
(§3) A prespecified Statistical Analysis Plan (SAP) was prepared and finalized before the database lock occurred. For safety and tolerability, frequencies of adverse events, serious adverse events and laboratory abnormalities between the participants across the three groups are compared, using Pearson’s χ [2] or ANOVA, as appropriate. Plasma concentration-time data are analyzed by non-compartmental methods using WinNonlin version 6.2.1 or greater. Calculations are based on the actual sampling times recorded during the study. For PK analysis, only the subjects receiving Posiphen are included.
(§4) Noncompartmental pharmacokinetic parameters were estimated using Phoenix WinNonlin v8.3 (Certara, Princeton, NJ). Levels and parameters (Cmax, AUC) of posiphen, n-1 and n-8 metabolites were highly correlated in plasma and CSF. For the BID and TID doses the expected post dose plasma peaks appeared attenuated.

The nature of data set [2]: CSF pharmacokinetics of Posiphen and its N1 and N8 metabolites (lumbar catheter sampling, LC-MS). It is filed as in vivo, human. The settings on record: for mean levels averaged over 24 h of CSF sampling: after 21–23 days, early AD.
Excerpt: as §1, §2, §3, §4

Data set [3] deals with Aβ. More on the design: method as in PMID 24828079. The settings on record: mice and cognitively normal humans (aged 18–50), single dose of 60 mg; cited from earlier work.
Setting [4] is: 60 mg BID (n = 5), geometric mean (% geometric CV).
[5] abbreviates: 60 mg BID (n = 5), median (min-max).
Setting [6] is: 60 mg daily (n = 4), geometric mean (% geometric CV).
Where [7] appears, read: 60 mg daily (n = 4), median (min-max).
Where [8] appears, read: 60 mg daily (n = 4; N1: only one participant measurable), geometric mean (% geometric CV).
The mark [9] stands for this setting: 60 mg daily (n = 4; N1: only one participant measurable), median (min-max).

Each structure is given as a SMILES string. Marks after values point to notes of the source that are not given here.

As for `CN1CC[C@]2(C)c3cc(OC(=O)Nc4ccccc4)ccc3NC12` (stereo partly drawn) [N8], the “AUC0 − 24 in plasma, dose proportionality” value in data set [1] is on record as “increased approximately proportionally”. For the same molecule, the “mean levels averaged over 24 h of CSF sampling” value turned out to be 5.04 ± 1.80 ng/mL in data set [1] (60 mg BID (n = 5)); 3.35 ng/mL in data set [1] (60 mg TID (n = 1)); 2.25 ± 1.36 ng/mL in data set [1] (60 mg once daily (n = 5)); 0.35 ± 0.26 ng/mL in data set [2] (60 mg (n = 5)); 0.77 ± 0.43 ng/mL in data set [2] (60 mg BID (n = 5)); 0.15 ng/mL in data set [2] (60 mg TID (n = 1)). The “AUC0 − 24” value in data set [1] (setting [4]) is 113.65 (44.01) hr*ng/mL; in data set [1] (60 mg TID (n = 1)), 80.40 ng·h/mL; in data set [1] (setting [6]) it was 66.02 (20.83) hr*ng/mL; in data set [2] (setting [4]), 17.88 (58.47) hr*ng/mL; in data set [2] (60 mg TID (n = 1)), 6.26 ng·h/mL; in data set [2] (setting [8]), 8.91 (47.91) hr*ng/mL. In addition, the Cmax is 10.01 (27.79) ng/mL in data set [1] (setting [4]); 5.41 ng/mL in data set [1] (60 mg TID (n = 1)); 6.81 (25.10) ng/mL in data set [1] (setting [6]); 1.41 (39.33) ng/mL in data set [2] (setting [4]); 0.62 ng/mL in data set [2] (60 mg TID (n = 1)); 1.01 (14.14) ng/mL in data set [2] (setting [8]). The Tmax is 12 (2–20) hr in data set [1] (setting [5]); 2 h in data set [1] (60 mg TID (n = 1)); 3 (3–4) hr in data set [1] (setting [7]); 12 (4–20) hr in data set [2] (setting [5]); 12 h in data set [2] (60 mg TID (n = 1)); 4 (2–8) hr in data set [2] (setting [9]).

As for `CN(C)CCCC1(c2ccc(F)cc2)OCc2cc(C#N)ccc21` (stereo not drawn) [citalopram], in data set [3], the “Aβ production (SILK)” value is listed as “decreased”.

For `CN1c2ccc(OC(=O)Nc3ccccc3)cc2[C@]2(C)CCN[C@H]12` [N1], in data set [1], the “AUC0 − 24 in plasma, dose proportionality” value is “increased approximately proportionally”. Also, the “mean levels averaged over 24 h of CSF sampling” value in data set [1] (60 mg BID (n = 5)) turned out to be 3.02 ± 1.40 ng/mL; in data set [1] (60 mg TID (n = 1)), 2.51 ng/mL; in data set [1] (60 mg once daily (n = 5)), 1.29 ± 0.77 ng/mL; in data set [2] (60 mg (n = 5)), 0.02 ± 0.04 ng/mL; in data set [2] (60 mg BID (n = 5)), 0.28 ± 0.30 ng/mL; in data set [2] (60 mg TID (n = 1)), 0.00 ng/mL. Moreover, the “AUC0 − 24” value was 65.06 (58.61) hr*ng/mL in data set [1] (setting [4]); 60.18 ng·h/mL in data set [1] (60 mg TID (n = 1)); 36.60 (19.24) hr*ng/mL in data set [1] (setting [6]); 8.75 (83.50) hr*ng/mL in data set [2] (setting [4]); 1.33* hr*ng/mL in data set [2] (setting [8]). The Cmax was 6.96 (32.01) ng/mL in data set [1] (setting [4]); 5.48 ng/mL in data set [1] (60 mg TID (n = 1)); 5.43 (21.98) ng/mL in data set [1] (setting [6]); 0.90 (31.32) ng/mL in data set [2] (setting [4]); 0.66* ng/mL in data set [2] (setting [8]). In addition, the Tmax in data set [1] (setting [5]) is 12 (2–20) hr; in data set [1] (60 mg TID (n = 1)), 2 h; in data set [1] (setting [7]) it was 2 (2–4) hr; in data set [2] (setting [5]) it was 12 (4–20) hr; in data set [2] (setting [9]), 4* hr.
